In PubChem BioAssay (NCI):
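In this assay, cells in 96-well plates receive the compound at five concentrations for 48 hours. Endpoints are linearly interpolated between the surrounding concentrations. GI50 is the concentration that inhibits growth by half. TGI marks complete inhibition of growth.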

Legend:
Assay in all cases: DTP human tumour cell line panel, 48 h
786-0 renal = tested on: 786-0 renal
A498 renal = tested on: A498 renal
A549 NSCLC = tested on: A549 NSCLC
ACHN renal = tested on: ACHN renal
BT-549 breast = tested on: BT-549 breast
CAKI-1 renal = tested on: CAKI-1 renal
CCRF-CEM leukemia = tested on: CCRF-CEM leukemia
COLO 205 colon = tested on: COLO 205 colon
DU-145 prostate = tested on: DU-145 prostate
EKVX NSCLC = tested on: EKVX NSCLC
HCC-2998 colon = tested on: HCC-2998 colon
HCT-116 colon = tested on: HCT-116 colon
HCT-15 colon = tested on: HCT-15 colon
HL-60(TB) leukemia = tested on: HL-60(TB) leukemia
HOP-62 NSCLC = tested on: HOP-62 NSCLC
HOP-92 NSCLC = tested on: HOP-92 NSCLC
HS 578T breast = tested on: HS 578T breast
HT29 colon = tested on: HT29 colon
IGROV1 ovarian = tested on: IGROV1 ovarian
K-562 leukemia = tested on: K-562 leukemia
KM12 colon = tested on: KM12 colon
LOX IMVI melanoma = tested on: LOX IMVI melanoma
M14 melanoma = tested on: M14 melanoma
MALME-3M melanoma = tested on: MALME-3M melanoma
MCF7 breast = tested on: MCF7 breast
MDA-MB-231 breast = tested on: MDA-MB-231 breast
MDA-MB-435 = tested on: MDA-MB-435
MOLT-4 leukemia = tested on: MOLT-4 leukemia
NCI-H226 lung = tested on: NCI-H226 lung
NCI-H23 lung = tested on: NCI-H23 lung
NCI-H460 lung = tested on: NCI-H460 lung
NCI-H522 lung = tested on: NCI-H522 lung
NCI/ADR-RES ovarian = tested on: NCI/ADR-RES ovarian
OVCAR-3 ovarian = tested on: OVCAR-3 ovarian
OVCAR-4 ovarian = tested on: OVCAR-4 ovarian
OVCAR-5 ovarian = tested on: OVCAR-5 ovarian
OVCAR-8 ovarian = tested on: OVCAR-8 ovarian
PC-3 prostate = tested on: PC-3 prostate
RPMI-8226 leukemia = tested on: RPMI-8226 leukemia
RXF 393 renal = tested on: RXF 393 renal
SF-268 CNS = tested on: SF-268 CNS
SF-295 CNS = tested on: SF-295 CNS
SF-539 CNS = tested on: SF-539 CNS
SK-MEL-2 melanoma = tested on: SK-MEL-2 melanoma
SK-MEL-28 melanoma = tested on: SK-MEL-28 melanoma
SK-MEL-5 melanoma = tested on: SK-MEL-5 melanoma
SK-OV-3 ovarian = tested on: SK-OV-3 ovarian
SN12C renal = tested on: SN12C renal
SNB-19 CNS = tested on: SNB-19 CNS
SNB-75 CNS = tested on: SNB-75 CNS
SR leukemia = tested on: SR leukemia
SW-620 colon = tested on: SW-620 colon
T-47D breast = tested on: T-47D breast
TK-10 renal = tested on: TK-10 renal
U251 CNS = tested on: U251 CNS
UACC-257 melanoma = tested on: UACC-257 melanoma
UACC-62 melanoma = tested on: UACC-62 melanoma
UO-31 renal = tested on: UO-31 renal

## CN1CCN(Cc2ccc3c(NNC(=O)c4ccccc4)nc4cc(F)ccc4n23)CC1
786-0 renal
  GI50: 376 nM
  TGI: 17800 nM
A498 renal
  GI50: 658 nM
  TGI: 8810 nM
A549 NSCLC
  GI50: 473 nM
  TGI: 21800 nM
ACHN renal
  GI50: 84.8 nM
  TGI: 11600 nM
BT-549 breast
  GI50: 870 nM
  TGI: 57900 nM
CAKI-1 renal
  GI50: 248 nM
  TGI: 14400 nM
CCRF-CEM leukemia
  GI50: 225 nM
  TGI: > 100000 nM
COLO 205 colon
  GI50: 325 nM
  TGI: 13600 nM
DU-145 prostate
  GI50: 663 nM
  TGI: > 100000 nM
EKVX NSCLC
  GI50: 170 nM
  TGI: 16000 nM
HCC-2998 colon
  GI50: 526 nM
  TGI: 49600 nM
HCT-116 colon
  GI50: 316 nM
  TGI: 16000 nM
HCT-15 colon
  GI50: 56.8 nM
  TGI: > 49400 nM
HL-60(TB) leukemia
  GI50: 335 nM
  TGI: 1910 nM
HOP-62 NSCLC
  GI50: 270 nM
  TGI: > 100000 nM
HOP-92 NSCLC
  GI50: 1120 nM
  TGI: 41500 nM
HS 578T breast
  GI50: 5730 nM
  TGI: > 100000 nM
HT29 colon
  GI50: 587 nM
  TGI: > 49000 nM
IGROV1 ovarian
  GI50: 487 nM
  TGI: 49200 nM
K-562 leukemia
  GI50: 376 nM
  TGI: 21000 nM
KM12 colon
  GI50: 420 nM
  TGI: > 96400 nM
LOX IMVI melanoma
  GI50: 277 nM
  TGI: 12600 nM
M14 melanoma
  GI50: 252 nM
  TGI: 12900 nM
MALME-3M melanoma
  GI50: 584 nM
  TGI: 12700 nM
MCF7 breast
  GI50: 359 nM
  TGI: 11800 nM
MDA-MB-231 breast
  GI50: 500 nM
  TGI: 19200 nM
MDA-MB-435
  GI50: 599 nM
  TGI: > 66000 nM
MOLT-4 leukemia
  GI50: 291 nM
  TGI: 20200 nM
NCI-H226 lung
  GI50: 442 nM
  TGI: 9710 nM
NCI-H23 lung
  GI50: 989 nM
  TGI: 29600 nM
NCI-H460 lung
  GI50: 195 nM
  TGI: 11000 nM
NCI-H522 lung
  GI50: 550 nM
  TGI: 12900 nM
NCI/ADR-RES ovarian
  GI50: 220 nM
OVCAR-3 ovarian
  GI50: 337 nM
  TGI: 40100 nM
OVCAR-4 ovarian
  GI50: 335 nM
  TGI: 37100 nM
OVCAR-5 ovarian
  GI50: 735 nM
  TGI: 70200 nM
OVCAR-8 ovarian
  GI50: 372 nM
  TGI: 46400 nM
PC-3 prostate
  GI50: 466 nM
  TGI: > 66700 nM
RPMI-8226 leukemia
  GI50: 574 nM
  TGI: 18100 nM
RXF 393 renal
  GI50: 683 nM
  TGI: 21300 nM
SF-268 CNS
  GI50: 454 nM
  TGI: > 100000 nM
SF-295 CNS
  GI50: 270 nM
  TGI: 4890 nM
SF-539 CNS
  GI50: 491 nM
  TGI: 8220 nM
SK-MEL-2 melanoma
  GI50: 2410 nM
  TGI: > 70600 nM
SK-MEL-28 melanoma
  GI50: 566 nM
  TGI: 17800 nM
SK-MEL-5 melanoma
  GI50: 577 nM
  TGI: 3280 nM
SK-OV-3 ovarian
  GI50: 371 nM
  TGI: > 100000 nM
SN12C renal
  GI50: 551 nM
  TGI: > 100000 nM
SNB-19 CNS
  GI50: 587 nM
  TGI: > 100000 nM
SNB-75 CNS
  GI50: 436 nM
  TGI: > 25800 nM
SR leukemia
  GI50: 282 nM
  TGI: 15700 nM
SW-620 colon
  GI50: 519 nM
  TGI: 22400 nM
T-47D breast
  GI50: 593 nM
  TGI: 22800 nM
TK-10 renal
  GI50: 252 nM
  TGI: > 92500 nM
U251 CNS
  GI50: 373 nM
  TGI: 19000 nM
UACC-257 melanoma
  GI50: 848 nM
  TGI: 12500 nM
UACC-62 melanoma
  GI50: 360 nM
  TGI: 3490 nM
UO-31 renal
  GI50: 68.1 nM
  TGI: 3790 nM
